Measured values taken from patent US8946234B2, “Halogen-substituted compounds” (Bayer CropScience AG, priority 2008, dated 2015).
Like-named read-outs stand apart in the source and are kept apart here.

Assay: logP by HPLC on a C18 phase inversion column, EEC Directive 79/831 Annex V.A8, method a) (Agilent 1100, 10-95% acetonitrile in 4.25 min)
Type: physicochemical
Conditions: for chromatographic logP: read-out: logP
Procedure: ^a) Note regarding the determination of the log P values and mass detection: The log P values given were determined in accordance with EEC Directive 79/831 Annex V.A8 by HPLC (High Performance Liquid Chromatography) on a phase inversion column (C18). Agilent 1100 LC system; 50*4.6 Zorbax Eclipse Plus C18 1.8 micron; eluent A: acetonitrile (0.1% formic acid); eluent B: water (0.09% formic acid); linear gradient from 10% acetonitrile to 95% acetonitrile in 4.25 min, then 95% acetonitrile for a further 1.25 min; oven temperature 55° C.; flow: 2.0 ml/min. The mass detection is carried out via an Agilend MSD system.

[1] = HPLC phase inversion (reversed-phase) C18 column, HPLC method a), eluent acetonitrile/water with formic acid
[2] = HPLC method a), eluent acetonitrile/water with formic acid
[3] = HPLC phase inversion (reversed-phase) C18 column, HPLC on C18 phase inversion column, method a)

| SMILES | logP | other results |
| --- | --- | --- |
| Cn1nc(C(O)C2CC2)c(C(F)(F)F)c1C(=O)Nc1ccc(Cl)c(C(=O)NC2CC2)c1 (stereo not drawn) [N-[4-chloro-3-(cyclopropylcarbamoyl)phenyl]-3-[cyclopropyl(hydroxy)methyl]-1-methyl-4-(trifluoromethyl)-1H-pyrazole-5-carboxamide] | – | chromatographic logP [1]: 2 |
| Cn1nc(OC(F)F)c(Br)c1C(=O)Nc1ccc(Cl)c(C(=O)NCC(F)(F)F)c1 [Ik-236] | 2.88^a) | – |
| Cn1nc(C(F)(F)F)c(I)c1C(=O)Nc1ccc(Cl)c(C(=O)NC2CC2)c1 [Ik-182] | 2.70^a) | – |
| Cn1nc(-c2ccc(F)cc2)c(Br)c1C(=O)Nc1ccc(Cl)c(C(=O)NC2CC2)c1 [Ik-248] | 3.04^a) | – |
| CC(NC(=O)c1cc(NC(=O)c2c(C(F)(F)F)c(C(F)(F)C(F)(F)F)nn2C)ccc1F)C(F)(F)F (stereo not drawn) [Ik-161] | 3.89^a) | – |
| CC(C)NC(=O)c1cc(NC(=O)c2nccc(C(F)(F)F)c2Cl)ccc1Cl [Ie-2] | 2.72^a) | – |
| Cn1nc(OCC(F)(F)F)c(F)c1C(=O)Nc1ccc(Cl)c(C(=O)NC2CC2)c1 [Ik-260] | 2.75^a) | – |
| O=C(O)c1cnc(C(F)(F)C(F)(F)C(F)(F)F)nc1C(F)(F)F [2-(Heptafluoropropyl)-4-(trifluoromethyl)pyrimidine-5-carboxylic acid] | – | chromatographic logP [2]: 2.23 |
| Cn1nc(C(F)(F)C(F)(F)F)c(C(F)(F)F)c1C(=O)Nc1cc(F)c(Br)c(C(=O)NCC(F)(F)F)c1 [Ik-228] | 3.88^a) | – |
| O=C(NCc1ccccc1)c1cc(NC(=O)c2cnc(C(F)(F)C(F)(F)F)nc2C(F)F)ccc1Cl [Ib-29] | 3.51^a) | – |
| Cn1ccc(C(F)(F)C(F)(F)F)n1 [1-Methyl-3-pentafluoroethyl-1H-pyrazole] | – | chromatographic logP [1]: 2.29 |
| Cn1nc(OC(F)F)c(C(F)(F)F)c1C(=O)Nc1ccc(Cl)c(C(=O)NCC(F)(F)F)c1 [Ik-126, N-{4-Chloro-3-[(2,2,2-trifluoroethyl)carbamoyl]phenyl}-3-(difluoromethoxy)-1-methyl-4-(trifluoromethyl)-1H-pyrazole-5-carboxamide] | – | chromatographic logP [1]: 3.01; chromatographic logP [3]: 3.01 |
| CCN(CC)C(=O)COC(=O)c1cc(NC(=O)c2c(C(F)(F)F)c(C(F)(F)C(F)(F)F)nn2C)ccc1Cl [Ik-109] | 4.11^a) | – |
| CCOC(=O)c1cc(NC(=O)c2c(C(F)(F)F)c(C(F)(F)C(F)(F)F)nn2C)ccc1Cl [Ik-103] | 4.42^a) | – |
| CCOC(=O)c1cnc(C(F)(F)C(F)(F)F)nc1C(F)F [Ethyl 4-(difluoromethyl)-2-(pentafluoroethyl)pyrimidine-5-carboxylate] | – | chromatographic logP [1]: 3.42 |
| Cn1nc(C(F)(F)F)cc1C(=O)Nc1ccc(Cl)c(C(=O)NC2CC2)c1 [Ik-71] | 2.48^a) | – |
| Cn1nc(C(F)(F)C(F)(F)F)c(C(F)(F)F)c1C(=O)Nc1ccc(F)c(C(=O)NCc2ccccc2)c1 [Ik-157] | 3.95^a) | – |
| O=C(NCc1ccccc1)c1cc(NC(=O)c2cnc(C(F)(F)C(F)(F)C(F)(F)F)nc2C(F)(F)F)ccc1Cl [Ib-18] | 4.13^a) | – |
| Cn1nc(C(F)(F)C(F)(F)F)c(C(F)(F)F)c1C(=O)Nc1cc(C(=O)N[C@@H]2C[C@@H]2F)c(Br)cn1 [Ik-128, 5-Bromo-N-[(1R,2S)-2-fluorocyclopropyl]-2-({[1-methyl-3-(pentafluoroethyl)-4-(trifluoromethyl)-1H-pyrazol-5-yl]carbonyl}amino)isonicotinamide] | – | chromatographic logP [1]: 3.19; chromatographic logP [3]: 3.19 |
| O=C(NC1CC1)c1cc(NC(=O)c2[nH]nc(C(F)(F)F)c2C(F)(F)F)ccc1Cl [Ik-197] | 2.55^a) | – |
| Cn1nc(C(F)(F)C(F)(F)F)c(C(F)(F)F)c1C(=O)Nc1ccc(Br)c(C(=O)NC2CC2)c1 [Ik-175] | 3.39^a) | – |

| SMILES | logP | other results |
| --- | --- | --- |
| CN(C(=O)c1c(C(F)(F)F)c(C(F)(F)C(F)(F)F)nn1C)c1ccc(Cl)c(C(=O)NCc2ccccc2)c1 [Ik-134] | 3.94^a) | – |
| Cn1nc(C(F)F)c(C(F)(F)F)c1C(=O)Nc1ccc(Cl)c(C(=O)NCC=CCl)c1 [Ik-232] | 2.92^a) | – |
| Cn1nc(C(F)(F)F)c(Cl)c1C(=O)Nc1ccc(Cl)c(C(=O)NC2CC2)c1 [Ik-18] | 2.77^a) | – |
| CC(Oc1cc(C(F)(F)F)c(C(=O)Nc2ccc(Cl)c(C(=O)NC3CC3)c2)cn1)C(F)(F)F (stereo not drawn) [Ij-2] | 3.32^a) | – |
| Cn1nc(C(F)(F)C(F)(F)F)cc1C(=O)Nc1ccc(Cl)c(C(=O)NC2CC2)c1 [Ik-17] | 2.94^a) | – |
| Cn1nc(C(F)(F)C(F)(F)F)c(C(F)(F)F)c1C(=O)Nc1cc(C(=O)NC2CC2)c(Cl)cn1 [Ik-318] | 3.24^a) | – |
| Cn1nc(C(F)(F)C(F)(F)F)c(C(F)(F)F)c1C(=O)Nc1ccc(Cl)c(C(=O)NCC(F)F)c1 [Ik-86] | 3.41^a) | – |
| O=C(NCc1ccccc1)c1cc(NC(=O)c2ncc(C(F)(F)F)cc2Cl)ccc1Cl [Ii-5] | 3.17^a) | – |
| CC(C)(C)n1nc(C(F)(F)C(F)(F)F)c(C(F)(F)F)c1C(=O)Nc1ccc(Cl)c(C(=O)NC2CC2)c1 [Ik-167] | 4.17^a) | – |
| CSc1c(Cl)cc(NC(=O)c2c(C(F)(F)F)c(C(F)(F)C(F)(F)F)nn2C)cc1C(=O)NC1CC1 [Ik-201] | 3.80^a) | – |
| CC(C)NC(=O)c1cc(NC(=O)c2c(C(F)(F)F)c(C(F)(F)C(F)(F)F)nn2C)ccc1Cl [Ik-90] | 3.60^a) | – |
| Cn1nc(C(F)(F)C(F)(F)F)c(Br)c1C(=O)O [4-Bromo-1-methyl-3-pentafluoroethyl-1H-pyrazole-5-carboxylic acid] | – | chromatographic logP [1]: 4.69 |
| Cn1nc(C(F)(F)F)c(Br)c1C(=O)Nc1ccc(Cl)c(C(=O)NCC(F)(F)F)c1 [Ik-160] | 3.17^a) | – |
| CNC(=O)c1cc(NC(=O)c2c(C(F)(F)F)c(C(F)(F)C(F)(F)F)nn2C)ccc1Cl [Ik-85] | 3.04^a) | – |
| Cn1nc(C(F)(F)F)c(C(F)(F)F)c1C(=O)Nc1ccc(Cl)c(C(=O)NCC=CCl)c1 [Ik-196] | 3.28^a) | – |
| Cn1nc(OCC(F)(F)F)c(Br)c1C(=O)Nc1ccc(Cl)c(C(=O)NC2CC2)c1 [Ik-256] | 2.87^a) | – |
| Cn1ccc(C(F)(Cl)C(F)(F)F)n1 (stereo not drawn) [1-Methyl-3-(1-chloro-1,2,2,2-tetrafluoroethyl)-1H-pyrazole] | – | chromatographic logP [1]: 2.46 |
| Cn1nc(C(F)(F)C(F)(F)F)c(C(F)(F)F)c1C(=O)Nc1cc(C(=O)NC2CC2)c(Cl)cc1Cl [Ik-147] | 3.61^a) | – |
| Cn1nc(C(F)(F)F)c(C(F)(F)F)c1C(=O)O [1-Methyl-3,4-bis(trifluoromethyl)-1H-pyrazole-5-carboxylic acid] | – | chromatographic logP [1]: 1.47 |
| Cn1ccc(C(F)(F)OC(F)(F)OC(F)(F)F)n1 [3-{[Difluoro(trifluoromethoxy)methoxy](difluoro)methyl}-1-methyl-1H-pyrazole] | – | chromatographic logP [1]: 3.79 |
| Cn1nc(C(F)(F)C(F)(F)F)c(C(F)(F)F)c1C(=O)Nc1cc(Br)cc(C(=O)NCC(F)(F)F)c1 [Ik-223] | 4.09^a) | – |

| SMILES | logP | other results |
| --- | --- | --- |
| Cn1nc(OC(F)F)c(Cl)c1C(=O)Nc1ccc(Cl)c(C(=O)NCC(F)(F)F)c1 [Ik-239] | 2.89^a) | – |
| CC#CC(C)(C)NC(=O)c1cc(NC(=O)c2c(C(F)(F)F)c(C(F)(F)C(F)(F)F)nn2C)ccc1Cl [Ik-81] | 4.03^a) | – |
| Cn1nc(C(F)(F)C(F)(F)C(F)(F)C(F)(F)F)c(I)c1C(=O)Nc1ccc(Cl)c(C(=O)NC2CC2)c1 [Ik-265] | 3.90^a) | – |
| O=C(NC1CC1)c1cc(NC(=O)c2ncc(OCC(F)(F)F)cc2C(F)(F)F)ccc1Cl [Ii-7, N-[4-Chloro-3-(cyclopropylcarbamoyl)phenyl]-5-(2,2,2-trifluoroethoxy)-3-(trifluoromethyl)pyridine-2-carboxamide] | – | chromatographic logP [1]: 2.9 |
| Cn1nc(C(F)(F)C(F)(F)F)c(C(F)(F)F)c1C(=O)Nc1ccc(Br)c(C(=O)NCC(F)(F)F)c1 [Ik-173] | 3.77^a) | – |
| O=C(NCC(F)(F)F)c1cc(NC(=O)c2cnc(C(F)(F)C(F)(F)F)nc2C2CC2)ccc1Cl [Ib-31] | 3.65^a) | – |
| Cn1nc(C(F)(F)C(F)(F)F)c(C(F)(F)F)c1C(=O)Nc1cc(C(=O)NC2CC2)c(F)cc1Cl [Ik-148] | 3.53^a) | – |
| Cn1cc(Br)c(C(F)(Cl)C(F)(F)F)n1 (stereo not drawn) [4-Bromo-1-methyl-3-(1-chloro-1,2,2,2-tetrafluoroethyl)-1H-pyrazole] | – | chromatographic logP [1]: 3.17 |
| Cn1nc(C(F)(F)C(F)(F)F)c(C(F)(F)F)c1C(=O)Nc1ccc(Cl)c(C(=O)NCc2ccccc2)c1 [Ik-84] | 3.90^a) | – |
| Cn1nc(OCC(F)(F)F)cc1C(=O)Nc1ccc(Cl)c(C(=O)NCC(F)(F)F)c1 [Ik-246] | 2.92^a) | – |
| Cn1nc(C(F)(F)F)c(Cl)c1C(=O)Nc1ccc(Cl)c(C(=O)NC2CC2F)c1 (stereo not drawn) [Ik-153] | 2.86^a) | – |
| Cn1nc(C(F)(F)C(F)(F)F)c(C(F)(F)F)c1C(=O)Nc1cc(F)cc(C(=O)NCc2ccccc2)c1 [Ik-162] | 4.05^a) | – |
| Cn1nc(C(F)(F)F)c(Br)c1C(=O)Nc1ccc(Cl)c(C(=O)NC2CC2F)c1 (stereo not drawn) [Ik-159] | 2.82^a) | – |
| Cn1nc(C(F)(F)C(F)(F)C(F)(F)C(F)(F)F)c(Br)c1C(=O)O [4-Bromo-1-methyl-3-nonafluorobutyl-1H-pyrazole-5-carboxylic acid] | – | chromatographic logP [2]: 3.17 |
| CC(NC(=O)c1cc(NC(=O)c2c(Br)c(C(F)(F)F)nn2C)ccc1Cl)C(F)(F)F (stereo not drawn) [Ik-158] | 3.40^a) | – |
| Cn1nc(C(F)(F)C(F)(F)F)c(C(F)(F)F)c1C(=O)Nc1cc(C(=O)NCc2ccccc2)c(Cl)cc1Cl [Ik-150] | 4.23^a) | – |
| Cn1nc(C(F)(F)C(F)(F)F)c(C(F)(F)F)c1C(=O)Nc1ccc([N+](=O)[O-])c(C(=O)NCC(F)(F)F)c1 [Ik-181] | 3.58^a) | – |
| CC(NC(=O)c1cc(NC(=O)c2c(Br)c(C(F)(F)C(F)(F)F)nn2C)ccc1Cl)C(F)(F)F (stereo not drawn) [Ik-11] | 2.00^a) | – |
| CSc1c(F)cc(NC(=O)c2c(C(F)(F)F)c(C(F)(F)C(F)(F)F)nn2C)cc1C(=O)NC1CC1 [Ik-191] | 3.57^a) | – |
